In brackets after ≈: the same amount, converted by molar mass. Several values for one entry are separate records, joined by “and”; a condition that tells them apart may be missing. Equal entries are not always repeated. Entries after “also recorded” stand apart in the source; their conditions may differ. Where two headings read alike, the source gives them in different places.
Tests used:
[1] = system: adult female mosquitoes; experiment: whole plant or invertebrate; conditions: for 1-hour Knockdown EC50 (μg/g mosquito) / LD50: topical; for LD50: 24 h, read-out: 24-hour Mortality LD50 (μg/g mosquito)
Experimental: The first group of DHAA-based derivatives that were tested included Formula A2, Formula B3, Formula C3, and Formula D3. A solution of 0.5% or 1.5% of each of these compounds was applied to the mosquitoes, as described above. […] Acetone was used as a control.

[2] = system: house flies; experiment: Knockdown and mortality of DHAA-based derivatives on house flies; format: in vivo, house fly
Excerpt: Accordingly, further derivatives with structures similar to Formula C3 were synthesized and tested for knockdown potential and mortality in house flies and mosquitoes using an experimental design similar to the one described above. These compounds include Formula C5, Formula C6, Formula C7, Formula C8, Formula C9, and Formula C10.

[3] = system: adult flies; experiment: Contact toxicity on treated filter paper; format: in vivo; conditions: filter paper treated with 1 mL in acetone; 24 hours
Experimental: Filter papers were treated with 1 mL of the disclosed compounds in acetone at varying concentrations, and the filter papers were placed in a dish. Ten adult flies were added to each dish and a sugar pad was added to each dish to ensure that any mortality could be attributed to the compound instead of starvation. Mortality was assessed at 24 hours.

[4] = system: soybean aphids; experiment: Soybean aphid leaf dip assay for DHAA-based derivatives; format: in vivo; conditions: 24 hours
Experimental: Isolated soybean leaves were dipped into a pyrone solution containing either 0.5% or 1.5% of select DHAA-based derivatives. The leaves were allowed to dry for 30 minutes, and then place in a dish. Ten soybean aphids were placed on each leaf. Mortality was assessed at 24 hours.

[5] = system: adult, female mosquitoes; experiment: Topical application on adult female mosquitoes (24-h mortality, 1-h knockdown); format: in vivo, mosquito; conditions: for ED50: read-out: KD50 (ug/g mosquito); for LD50: read-out: LD50 (ug/g mosquito); for insecticidal properties compared with natural pogostone, natural pyrethrins or terpenoids: words, refers to Table 1
[6] = system: house flies; experiment: Topical application on house flies; conditions: House Fly Toxicity; topical
[7] = system: adult house flies; experiment: Topical application of pogostone derivatives with PBO or plant essential oil on house flies; format: in vivo, house fly; conditions: house flies, topical, derivative alone or in combination with PBO
Experimental: Combinations of select pogostone derivatives with select concentrations of PBO or plant essential oils was performed. […] Synergists were applied as a subsequent application directly after the application of pogostone derivatives. Concentrations of synergists (plant oils or PBO) were chosen that produced no mortality at 24 hours when applied alone.
To assess the ability of PBO to increase the toxicity of a wide variety of pogostone derivatives, PBO and the pogostone derivatives were applied in combination to the pronotum of house flies.
Finally, the potential of plant essential oils to synergize the effect of Formula 30 was assessed.

[8] = system: adult house flies; experiment: House fly feeding assay (choice assay, FIG. 5); format: in vivo; conditions: 15% w/w in fly food, total mortality at 5 days
Excerpt: Formulas 13, 17, 24, 26, 10, 27, and 29 and control (acetone and boric acid) were incorporated into 2 g of house fly food (1:1 dry milk and sucrose) at rate of 15%. Specifically, approximately 20-30 adult house flies ( ) were introduced into aquaria with a French square filled with de-ionized water. Cotton dental wicks were used to draw water up and present it to flies at the top of the French square. Compounds were introduced at a concentration of (15% w/w food) into 1:1 mixtures of evaporated milk powder and sucrose. MUSCALURE™, a potent house fly attractant/pheromone used in various house fly bait products, was also added to this mixture of bait and food at a concentration of 0.5% w/w food. Two grams of food mixed with compound was provided to house flies in each assay. Another 2 g of just fly food (no compound) was provided at the other end of the assay chamber to serve as untreated source of food. This was done to assess the ability of flies to feed on the treated food source (palatability). If acetone was used as the carrier throughout the experiment, the food was carefully stirred repeatedly to ensure evaporation so that no more acetone was present in the food. Total mortality was assessed at 5 days after introducing house flies into individual mason jars with food treated with different compounds.

[9] = system: 3-4 instar Aedes aegypti larvae; experiment: Mosquito larvicide bioassay; format: in vivo; conditions: for LC50: Aedes aegypti
Experimental: Mosquito larvicide bioassays were performed by introducing various concentrations of test compounds (pyrone derivatives and rotenone) into acetone at various concentrations. 200 uL of these solutions were added to individual cups containing 10, 3-4 instar Aedes aegypti larvae and 25 mL of DI water. 2 mg of Tetramin™ was provided to each cup as a food source. […] Ataxia was used as the indicator of larval mortality. At least 5 concentrations were used which caused between 10 and 90% mortality. LC50 values were calculated using a PROC PROBIT model in SAS 9.4.

[10] = system: Pyrethroid-resistant strain of Aedes aegypti (Puerto Rican strain); experiment: Toxicity to insecticide-resistant mosquitoes (FIG. 1); conditions: dose response curves FIG. 1
[11] = system: corn seeds; experiment: Seed treatment testing: survival/germination of treated corn seeds (FIG. 2B); format: in vivo; conditions: seeds coated with compound; 1 week after introduction of larvae
Experimental: (§1) Corn seeds used were a non-transgenic type strain of corn to prevent confounding results. Germination typically occurred between 2-4 days after moistening.
(§2) Seed coating was accomplished by placing 20 g of corn seeds or soybeans into a container with approximately 1 mL of a 1:5 Elmer's glue:water solution with a small amount of Triton-X100™ (present 100 μL/5 mL). For solid compounds, 0.25 g of compound was subsequently introduced into the container. This mixture of seeds, Elmer's Glue/water/Triton-X 100™ solution, and active compound was mixed thoroughly until seeds were coated with the active ingredient.
(§3) For each treatment, 0.25 g of liquid compound was dissolved in 5 mL of hexane. 0.25 g of Hi-Sil 233 silica gel was introduced into this mixture of hexane and active ingredient. The solvent was blown-off using a rotary evaporator, allowing for the compound to adsorb to the silica gel. This 0.5 g of silica gel:active ingredient was then used as the solid material used for coating the seeds. The seeds were then coated with the same method used for solid compound.
(§4) Three corn seeds coated in pogostone derivative treatments were germinated in small, 2-oz. […] Germination of seedlings was also recorded at the end of the assay by counting the total number of seeds that produced roots out of the 3 seeds in each container/replicate and recorded as total percentage germination. […]

[12] = system: Western corn rootworm larvae; experiment: Seed treatment testing: rootworm survival (FIG. 2A); format: in vivo; conditions: seeds coated with compound; 1 week after introduction of larvae
Experimental: as §1, §2, §3, §4

[13] = system: Dandelion (Taraxacum officinale); experiment: Soil drench herbicidal test, dandelion; format: in vivo; conditions: Dandelion; 2 weeks after soil drench - 40 mL of 0.5% solution; Rep 1 and 2
Experimental: Dandelion (Taraxacum officinale) seeds were obtained from the Department of Agronomy at Iowa State University. Individual seeds were sown for each pot (6″ wide×4.5″ deep) with approximately 800 mL of soil for each plan. Only plants that germinated were used for the study. Plants were treated 1-2 weeks post emergence. Plants were watered every 2-3 days as needed. Giant foxtail (Setaria faberi) seeds were obtained from the Department of Agronomy at Iowa State University. Three seeds were sown for each pot (6″ wide×4.5″ deep) with approximately 800 mL of soil for each plan. Only plants that germinated were used for the study. Plants were treated 1-2 weeks post emergence. Plants were watered every 2-3 days as needed.
Formulations of the various active ingredients were created using the disclosed pogostone derivatives and Triton-X 100 to aid in the solvation of the active ingredient. Formulations consisted of 0.5% active ingredient by weight. […] 40 mL of formulation ([…] active ingredient) was applied to each pot containing approximately 3-5 plants per pot at 2-3 weeks after emergence. Observations were performed 3 days and 2 weeks after soil drench to determine the effects of the treatments on the various types and stages of plants. […]

[14] = Mosquito Knockdown Properties (1 hour), topical application
[15] = Mosquito Toxicity (24 hours), topical application to pronotum

Compound	1-hour Knockdown EC50 (μg/g mosquito) [1] [μg/g mosquito]	LD50 [1] [mg/kg]	percent mortality, 0.10% Concentration [3] [%]	percent mortality, 0.25% Concentration [3] [%]	percent mortality, 0.50% Concentration [3] [%]	ED50 [5, 14] [mg/kg]	LD50 [5, 15] [mg/kg]	insecticidal properties compared with natural pogostone, natural pyrethrins or terpenoids [5]	LD50 (ug/g fly) [6]	mortality compared with boric acid [8]	ED50 ([5]; topical, 1 h) [mg/kg]	LD50 ([5]; topical, 24 h) [mg/kg]	also measured
Cc1cc(O)c(C(=O)CC(O)C(C)C)c(=O)o1 (stereo not shown) [Formula C10]	49	29	15	0	45	–	–	–	–	–	–	–	Mosquito Knockdown at 0.5% concentration ([1]; 0.5% concentration): 100%; Mosquito Mortality at 0.5% concentration ([1]; 0.5% concentration): 100%; Mosquito Knockdown at 1.5% concentration ([1]; 1.5% concentration): 100%; Mosquito Mortality at 1.5% concentration ([1]; 1.5% concentration): 100%; ranking in knockdown and mortality screenings ([1]; words): performed the best in the initial knockdown and mortality screenings; House Fly Knockdown at 0.5% concentration ([2]; 0.5% concentration): 52.5%; House Fly Mortality at 0.5% concentration ([2]; 0.5% concentration): 23%; House Fly Knockdown at 1.5% concentration ([2]; 1.5% concentration): 64%; House Fly Mortality at 1.5% concentration ([2]; 1.5% concentration): 24%; soybean aphids dead ([4]; leaf dipped in 0.5% solution): Roughly 67%; soybean aphids dead ([4]; leaf dipped in 1.5% solution): Roughly 90%
O=C(c1c(O)c2ccccc2oc1=O)C1CC1 [Formula 29]	–	–	–	–	–	613	47.7	possessed better insecticidal properties than natural pogostone	1761 ug/g fly	performed better than boric acid	–	–	LD50 [7]: 1761 µg/g
CCCC(=O)c1c(O)c2ccccc2oc1=O [Formula 14]	>1500	139	–	–	–	–	–	possessed better insecticidal properties than natural pogostone	>6,000 ug/g fly	–	> 1500	139	LC50 ([9]; larval mortality at 24 hours, in 25 mL DI water, read-out: LC50): 0.9 µg/mL; larvicidal properties compared with natural pogostone or rotenone ([9]; words): possessed better larvicidal properties than natural pogostone; also recorded: possessed better larvicidal properties than rotenone; also recorded: performed as well as the rotenone; LD50 (μg/g) [7]: >6,000 μg/g; insecticidal capacity compared with natural pyrethrins [10]: outperformed natural pyrethrins
Cc1cc(O)c(C(=O)CCC(C)C)c(=O)o1 [Pogostone, 3-(4-Methylpentanoyl)-4-hydroxy-2H]	95.2	262	95	100	100	18.4	388	–	–	–	–	–	phytotoxicity to treated corn seeds [11]: Significant phytotoxicity; LC50 ([9]; 24 h): 18.3 µg/mL (≈ 81.6 µM); western corn rootworm mortality [12]: significant western corn rootworm mortality
CCCCCCCCCCCC(=O)c1c(O)c2ccccc2oc1=O [Formula 26]	–	–	–	–	–	–	–	–	–	performed similarly to boric acid	> 1500	> 1500	–
O=C(O)COc1ccc(Cl)cc1Cl [2,4-D, 2,4-dichlorophenoxyacetic acid]	–	–	–	–	–	–	–	–	–	–	–	–	% mortality [13]: 100% and 80%

Reference: patent US20200024246A1, “POGOSTONE DERIVATIVES AND METHODS OF USING THE SAME” (Hamyard Associates LLC, priority 2018, published 2020)
